We go through 3 compounds from US20260001928A1 (CORTERIA PHARMACEUTICALS, priority 2022, published 2026).

*1 amine or outer side, *2 acyl side, *3 side chain or, on linkers, in order; H or OH if unused. Where a SMILES comes first, the peptide text is derived from it. Side-chain parts run from the residue outwards. [ ]: non-standard residue; d: D form. The star is where a group is joined. C20 diacid = O=C(O)CCCCCCCCCCCCCCCCCCC(=O)*; C18 diacid = O=C(O)CCCCCCCCCCCCCCCCC(=O)*; γGlu = O=C(O)[C@H](CCC(=O)[*:2])N[*:1]; Api = NC1(C(=O)O)CCNCC1; AEEA = NCCOCCOCC(=O)O; Aib = CC(C)(N)C(=O)O

One data set deals with T1, human CRF2a receptor (Homo sapiens, UniProt Q13324).
T1 construct: expressed in transfected cells; host or cells: TeloHEAC cells
T1 sequence (Q13324 1-411): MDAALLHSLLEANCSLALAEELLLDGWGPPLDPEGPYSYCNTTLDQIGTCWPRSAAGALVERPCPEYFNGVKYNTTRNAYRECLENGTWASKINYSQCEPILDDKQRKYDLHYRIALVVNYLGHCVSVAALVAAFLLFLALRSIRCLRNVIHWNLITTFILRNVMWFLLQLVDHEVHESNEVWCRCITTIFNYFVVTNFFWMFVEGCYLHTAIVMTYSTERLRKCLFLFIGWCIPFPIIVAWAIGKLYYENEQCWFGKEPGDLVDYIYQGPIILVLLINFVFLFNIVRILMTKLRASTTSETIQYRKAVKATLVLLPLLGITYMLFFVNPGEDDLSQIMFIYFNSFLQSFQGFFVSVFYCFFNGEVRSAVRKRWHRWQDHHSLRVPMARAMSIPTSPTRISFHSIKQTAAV
The data set can be described thus: Activity at human CRF2a receptor, cAMP functional assay in TeloHEAC cells. It is filed as cell-based. Conditions: TeloHEAC cells stably expressing human CRF2a receptor, relative to urocortin 2 (100 nM = 100%). In a few lines:
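cAMP accumulation was measured by HTRF 665/620 nm ratio after 30 min at 37° C compound exposure (16 twofold dilutions) of CRF2a-expressing TeloHEAC cells, 10000/well, in HEPES-buffered HBSS plus IBMX. Activity was normalised to urocortin 2 at 100 nM (100%), and EC50 was the concentration giving half-maximal activation.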

The next data set addresses T2, CFR1R receptor (Homo sapiens, UniProt P34998).
T2 construct: host or cells: CHO-K1 (clone 2)
T2 sequence (P34998 24-415): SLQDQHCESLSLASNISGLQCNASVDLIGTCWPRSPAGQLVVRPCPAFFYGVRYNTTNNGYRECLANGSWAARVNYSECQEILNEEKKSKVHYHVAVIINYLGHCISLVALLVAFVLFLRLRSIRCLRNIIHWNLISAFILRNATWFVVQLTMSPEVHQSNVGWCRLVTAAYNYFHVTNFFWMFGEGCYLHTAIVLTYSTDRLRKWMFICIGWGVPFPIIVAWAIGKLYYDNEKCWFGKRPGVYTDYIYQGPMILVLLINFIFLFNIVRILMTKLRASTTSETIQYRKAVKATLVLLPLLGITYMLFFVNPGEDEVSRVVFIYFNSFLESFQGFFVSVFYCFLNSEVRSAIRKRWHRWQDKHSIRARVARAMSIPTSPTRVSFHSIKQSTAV
The data set can be described thus: Activity at anti-target CFR1R receptor, cAMP assay in CRF1R-overexpression CHO-K1 cells. It is filed as cell-based. Conditions: 100% = Sauvagine at 100 nM; for EC50: cAMP. In a few lines:
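Run as for the TeloHAEC line, except the full-activation control well received Sauvagine (100 nM) and final density was 4000 cells/well. Cells from clone 2 came from frozen aliquots of near-confluent cultures.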

Data set [1] in a line: In vitro subcutaneous tissue supernatant (SCts) stability and metabolite identification, rat. It is filed as in vitro ADME. On the set-up: remaining at 2 h: dose or concentration left out as unconfirmed. Conditions: male, Sprague Dawley; rat subcutaneous tissue supernatant (SCts), 37° C, 2 h.
A short description of data set [2]: Chemical stability in buffer (pH 7.4 / pH 4.5), % purity loss. It is filed as physicochemical. Conditions: 40° C. vs 5° C., 14 or 28 days; for Buffer stability pH 4.5 % purity loss: 100 mM acetate buffer pH 4.5; for Buffer stability pH 7.4 % purity loss: 100 mM phosphate buffer pH 7.4. The gist of the method:
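Compounds dissolved at 10 mg/mL target in 100 mM phosphate (pH 7.4) or 100 mM acetate (pH 4.5) buffer for 1 h at room temperature, then centrifuged. Diluted supernatant stored at 5 °C or 40 °C for 14 or 28 days; % purity loss by LC-UV.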

Data set [3] can be described thus: Pharmacokinetics in male Sprague Dawley rats after subcutaneous administration. It is filed as in vivo. Conditions: plasma, rat, SC, 0.05 mg/kg. The procedure:
The pharmacokinetics of UCN-2 derivatives was studied in male Sprague Dawley rats after subcutaneous administration (SC) at 0.05, 0.1, 0.3 or 1 mg/kg. Peptides were formulated as a solution in 10 mM phosphate pH 7.4 buffer+glycerol 85% (2.3% v/v)). […] The supernatant (200 μL) was analyzed by LC-MSMS. Pharmacokinetic parameters were calculated using established non-compartmental methods. The area under the plasma concentration curve versus time (AUC) was determined using Watson LIMS (version 7.6), with linear trapezoidal interpolation in the ascending slope and logarithmic trapezoidal interpolation in the descending slope. The portion of the AUC from the last measurable concentration to infinity was estimated from the equation, Ct/kel, where Ct represents the last measurable concentration and kel is the elimination rate constant. The latter was determined from the concentration curve versus time by linear regression at the terminal phase of the semi-logarithmic plot.

A further data set has as its system Sprague Dawley rats. The data set can be described thus: Effect on systolic blood pressure, telemetry in Sprague Dawley rats. It is filed as in vivo, rat. Conditions: 0.1 mg/kg SC. The gist of the method: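 Sprague Dawley rats with abdominal-aorta telemetry catheters, recovered ≥10 days, received 0.1 mg/kg SC of compound or vehicle. Systolic pressure recorded 1 h pre-dose as baseline, then continuously up to 48 hours, expressed as % change from baseline; duration of action is last time point with a BP effect (n=2).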

The compound `CC[C@H](C)[C@H](NC(C)=O)C(=O)N[C@H](C(=O)N[C@@H](CC(C)C)C(=O)N[C@@H](CO)C(=O)N[C@@H](CC(C)C)C(=O)N[C@@H](CC(=O)O)C(=O)N[C@@H](C(=O)N1CCC[C@H]1C(=O)N[C@H](C(=O)N[C@@H](CCCCN)C(=O)N[C@@H](CC(C)C)C(=O)N[C@@H](CCCCNC(=O)COCCOCCNC(=O)COCCOCCNC(=O)CC[C@H](NC(=O)CCCCCCCCCCCCCCCCC(=O)O)C(=O)O)C(=O)N[C@@H](CCCCN)C(=O)N[C@H](C(=O)N[C@@H](CC(C)C)C(=O)N[C@@H](CC(C)C)C(=O)N[C@@H](CCC(=O)O)C(=O)N[C@@H](CCC(N)=O)C(=O)N[C@@H](CCC(=O)O)C(=O)N[C@@H](CCCCN)C(=O)N[C@@H](CCC(N)=O)C(=O)N[C@@H](CCCCN)C(=O)N[C@@H](CCCCN)C(=O)N[C@@H](CCC(N)=O)C(=O)N[C@@H](CCCNC(=N)N)C(=O)N[C@@H](CCC(=O)O)C(=O)N[C@@H](CCC(N)=O)C(=O)N[C@@H](C)C(=O)N[C@@H](CCC(=O)O)C(=O)N[C@H](C(=O)N[C@@H](CC(N)=O)C(=O)NC(C)(C)C(=O)N[C@@H](CCC(N)=O)C(=O)N[C@H](C(=O)N[C@@H](CC(C)C)C(=O)N[C@@H](C)C(=O)N[C@@H](CCC(N)=O)C(=O)N[C@H](C(N)=O)C(C)C)[C@@H](C)CC)[C@@H](C)O)[C@@H](C)CC)[C@@H](C)CC)C(C)C)C(C)C` [compound 98] (Ac-IVLSLD[dV]PIKLK([AEEA-AEEA-γGlu-C18 diacid])KILLEQEKQKKQREQAETN[Aib]QILAQV-NH2) came in with a half-maximal effective concentration (EC50) on human CRF2a receptor of 0.55 nM. Moreover, at CFR1R receptor, the “Emax (% I)” value is reported as −2 % I and the EC50 was > 250 nM. In data set [1], the fraction remaining at 2 h came to 74%. Also, in data set [2], the “Buffer stability pH 4.5 % purity loss” value is 0.0/0.0 ^ % and the “Buffer stability pH 7.4 % purity loss” value is given as 0.0/0.0 ^ %. Besides, in data set [3], the AUC(0-t) worked out at 2710 ng·h/mL, the peak level (Cmax) was 159 ng/mL, the Tmax was found to be 5 h and the half-life was 5.8 h.
In the case of `CC[C@H](C)[C@H](NC(C)=O)C(=O)N[C@H](C(=O)N[C@@H](CC(C)C)C(=O)N[C@@H](CO)C(=O)N[C@@H](CC(C)C)C(=O)N[C@@H](CC(=O)O)C(=O)N[C@@H](C(=O)N1CCC[C@H]1C(=O)N[C@H](C(=O)N[C@@H](CCCCN)C(=O)N[C@@H](CC(C)C)C(=O)N[C@@H](CCCCNC(=O)CC[C@H](NC(=O)CCCCCCCCCCCCCCCCC(=O)O)C(=O)O)C(=O)N[C@@H](CCCCN)C(=O)N[C@H](C(=O)N[C@@H](CC(C)C)C(=O)N[C@@H](CC(C)C)C(=O)N[C@@H](CCC(=O)O)C(=O)N[C@@H](CCC(N)=O)C(=O)N[C@@H](CCC(=O)O)C(=O)N[C@@H](CCCCN)C(=O)N[C@@H](CCC(N)=O)C(=O)N[C@@H](CCCCN)C(=O)N[C@@H](C)C(=O)N[C@@H](CCC(N)=O)C(=O)N[C@@H](CCCNC(=N)N)C(=O)N[C@@H](CCC(=O)O)C(=O)N[C@@H](CCC(N)=O)C(=O)N[C@@H](C)C(=O)N[C@@H](CCC(=O)O)C(=O)N[C@H](C(=O)N[C@@H](CC(N)=O)C(=O)NC1(C(=O)N[C@@H](CCC(N)=O)C(=O)N[C@H](C(=O)N[C@@H](CC(C)C)C(=O)N[C@@H](C)C(=O)N[C@@H](CCC(N)=O)C(=O)N[C@H](C(N)=O)C(C)C)[C@@H](C)CC)CCNCC1)[C@@H](C)O)[C@@H](C)CC)[C@@H](C)CC)C(C)C)C(C)C` [compound 187] (Ac-IVLSLD[dV]PIKLK([γGlu-C18 diacid])KILLEQEKQKAQREQAETN[Api]QILAQV-NH2), a half-maximal effect at human CRF2a receptor (EC50) was put at 0.26 nM. Further, at CFR1R receptor, the “Emax (% I)” value came to 37 % I. Also, the fraction remaining at 2 h in data set [1] was found to be 82%. Also, in data set [2], the “Buffer stability pH 4.5 % purity loss” value is 0.0/0.0 ^ % and the “Buffer stability pH 7.4 % purity loss” value is given as 0.0/0.0 ^ %. Further, in data set [3], the AUC(0-t) stood at 2100 ng·h/mL, the peak level (Cmax) was 137 ng/mL, the time of peak concentration (Tmax) was 7 h and the half-life was 9.7 h.
Regarding `CC[C@H](C)[C@H](NC(C)=O)C(=O)N[C@H](C(=O)N[C@@H](CC(C)C)C(=O)N[C@@H](CO)C(=O)N[C@@H](CC(C)C)C(=O)N[C@@H](CC(=O)O)C(=O)N[C@@H](C(=O)N1CCC[C@H]1C(=O)N[C@H](C(=O)N[C@@H](CCCCN)C(=O)N[C@@H](CC(C)C)C(=O)N[C@@H](CCCCNC(=O)COCCOCCNC(=O)CC[C@H](NC(=O)CCCCCCCCCCCCCCCCCCC(=O)O)C(=O)O)C(=O)N[C@@H](CCCCN)C(=O)N[C@H](C(=O)N[C@@H](CC(C)C)C(=O)N[C@@H](CC(C)C)C(=O)N[C@@H](CCC(=O)O)C(=O)N[C@@H](CCC(N)=O)C(=O)N[C@@H](CCC(=O)O)C(=O)N[C@@H](CCCCN)C(=O)N[C@@H](CCC(N)=O)C(=O)N[C@@H](CCCCN)C(=O)N[C@@H](CCC(=O)O)C(=O)N[C@@H](CCC(N)=O)C(=O)N[C@@H](CCCNC(=N)N)C(=O)N[C@@H](CCC(=O)O)C(=O)N[C@@H](CCC(N)=O)C(=O)N[C@@H](C)C(=O)N[C@@H](CCC(=O)O)C(=O)N[C@H](C(=O)N[C@@H](CC(N)=O)C(=O)NC(C)(C)C(=O)N[C@@H](CCC(N)=O)C(=O)N[C@H](C(=O)N[C@@H](CC(C)C)C(=O)N[C@@H](C)C(=O)N[C@@H](CCC(N)=O)C(=O)N[C@H](C(N)=O)C(C)C)[C@@H](C)CC)[C@@H](C)O)[C@@H](C)CC)[C@@H](C)CC)C(C)C)C(C)C` [compound 231] (Ac-IVLSLD[dV]PIKLK([AEEA-γGlu-C20 diacid])KILLEQEKQKEQREQAETN[Aib]QILAQV-NH2), the EC50 on human CRF2a receptor is 0.28 nM; on CFR1R receptor it was > 250 nM. The “Emax (% I)” value at CFR1R receptor is 10 % I. Also, in data set [1], the fraction remaining at 2 h amounted to 65%. Moreover, in data set [2], the “Buffer stability pH 7.4 % purity loss” value is 0.0/Not Tested %. For the same compound, the “Systolic blood pressure (Mean) % change from baseline, 8 h” value in the data set on Sprague Dawley rats (8 h, n=2) is −3%. Also, the “Systolic blood pressure (Mean) % change from baseline, 12 h” value in the data set with Sprague Dawley rats (12 h, n=2) is −3%. Moreover, the “Systolic blood pressure (Mean) % change from baseline, 24 h” value in the data set with Sprague Dawley rats (24 h, n=2) is reported as −12%. Also, the Duration of action in the data set with Sprague Dawley rats (last time point with an effect on BP still observed) is listed as >24 h.
